Laboratory results taken from US6323204A, “Methods for using (2-imidazolin-2-ylamino) quinoxaline derivatives” (Allergan, priority 1998, dated 2001).
Where two headings read alike, the source gives them in different places.

Legend:
[1] = rat activity test (central nervous system anesthetization activity); type: in vivo; conditions: iv, read-out: ID50 Rat Activity
Description: (§1) Two (2) animal models were utilized to determine the central nervous system anesthetization activity of the quinoxaline derivative produced in Example 2.
(§2) The first of these animal models is identified generally as the mouse hexobarbital sleep time test. Briefly, the compound in question (in a dosage range of between 10 and 500 micrograms/kg, i.v.) and the barbiturate hexobarbital (75 mg/kg, i.p) are coadministered to mice weighing 20 to 22 grams. […] Sleep time is assessed as the time associated with the loss of the animal's reflex to right itself when placed on its back. The ED15 is estimated from dose-response data as the effective dose which potentiates sleep time by 15 minutes. The second animal model used is identified generally as the rat activity test. Briefly, rats weighing 140 to 160 grams are placed into an environmentally isolated activity monitor five (5) minutes following administration of the compound in question (in the range of 1 to 1000 micrograms/kg, i.v.). Horizontal activity, measured in counts is determined for five (5) minutes.
(§3) The final quinoxaline derivative produced in Example 2 was tested using both of the above-noted animal models. For comparison purposes, clonidine and its hydrophilic analog, p-amino-clonidine, were also tested using these animal models.

[2] = mouse hexobarbital sleep time test (central nervous system anesthetization activity); type: in vivo; conditions: i.v., with hexobarbital 75 mg/kg i.p., dose which potentiates sleep time by 15 minutes
Description: as §1, §2, §3

[3] = in words; stated as known; cited from earlier work
[4] = in words
Description: The final quinoxaline derivative produced in Example 2, that is 5-bromo-6-(2-imidazolin-2-ylamino)quinoxaline, was tested for central nervous system anesthetization activity as follows.
as §1, §2
The final quinoxaline derivative produced in Example 2 was tested using both of the above-noted animal models. […]

## Nc1cc(Cl)c(NC2=NCCN2)c(Cl)c1 [p-Amino Clonidine]
[1]; rat, i.v., dose which decreases horizontal activity by 50%
  ED50: 0.302 mg/kg
[2]
  ED15 Mouse Sleep-Time: > 0.5 mg/kg

## Clc1cccc(Cl)c1N=C1NCCN1 [Clonidine]
[1]; Rattus norvegicus
  ED50: 0.026 mg/kg
[2]
  ED15 Mouse Sleep-Time: 0.075 mg/kg
[3]
  anesthetization activity (known): significant anesthetization activity

## Brc1c(NC2=NCCN2)ccc2nccnc12 [Example 2, 5-bromo-6-(2-imidazolin-2-ylamino) quinoxaline]
[1]; Rattus norvegicus
  ED50: 0.077 mg/kg
[2]
  ED15 Mouse Sleep-Time: 0.116 mg/kg
[4]
  central nervous system anesthetization activity compared with the hydrophilic analog of clonidine (p-amino clonidine): substantially more of such activity
[4]; mouse sleep time and rat activity tests
  central nervous system anesthetization activity: substantial central nervous system anesthetization activity
